Values of other authors, collected in patent EP3954777A1, “METHOD FOR ENZYMATIC DEGRADATION OF BITTER COMPOUNDS IN AGRO-INDUSTRIAL BY-PRODUCTS” (SternEnzym GmbH & Co. KG, priority 2020, dated 2022).

Test system: human test persons
Details: bitter taste

kaempferol 3-O-(2"'-O-sinapoyl-β-sophoroside)
level that, on average, can be tasted by humans (average (Hald et al., 2019)): 3.4 µmol/L | lowest level detectable by human test persons (lowest (Hald et al., 2019)): 1.7 µmol/L
